Data published in patent US20220387457A1 (Qlaris Bio, Inc., priority 2020, published 2022).

What was measured:
5′-nucleotidase = experiment: Conversion of CKLP1 by 5′-nucleotidase, LC/MS-MS, pH 7.4; assay type: biochemical, human; conditions: up to 2 hours
Description: Conversion of CKLP1 (200 μM-5.0 mM) was examined by LC/MS-MS following incubation at pH 7.4 with either human alkaline phosphatase (ALP), acid phosphatase, or 5′-nucleotidase (2.01 nM-1.0 μM) for up to 2 hours.

[1] = target: T1, placenta-derived human alkaline phosphatase (Homo sapiens, UniProt P05187); experiment: Dose- and time-dependent conversion of CKLP1 to levcromakalim by placenta-derived human alkaline phosphatase, pH 10; assay type: biochemical
T1 construct: varying concentrations of placenta-derived human alkaline phosphatase; from tissue; host or cells: human placenta
T1 sequence (P05187 23-506): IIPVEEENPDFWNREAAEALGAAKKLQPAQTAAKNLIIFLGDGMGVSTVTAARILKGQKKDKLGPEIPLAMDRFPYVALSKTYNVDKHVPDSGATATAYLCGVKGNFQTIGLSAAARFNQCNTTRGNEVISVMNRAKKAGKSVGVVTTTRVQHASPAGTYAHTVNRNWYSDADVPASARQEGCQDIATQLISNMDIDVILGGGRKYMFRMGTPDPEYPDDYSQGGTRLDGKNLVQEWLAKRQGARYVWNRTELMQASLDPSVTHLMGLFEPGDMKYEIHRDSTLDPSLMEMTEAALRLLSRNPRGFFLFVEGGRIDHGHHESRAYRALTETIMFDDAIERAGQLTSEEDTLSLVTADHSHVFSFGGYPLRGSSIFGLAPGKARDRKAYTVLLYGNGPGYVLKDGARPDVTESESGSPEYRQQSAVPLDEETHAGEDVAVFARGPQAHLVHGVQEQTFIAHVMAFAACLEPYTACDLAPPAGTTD
Description: To activate CKLP1, the phosphate is hydrolyzed from phosphatases to produce leveromakalim, the active moiety that can open (activate) ATP-sensitive potassium channels.
In the first experiment, a fixed concentration of CKLP1 solution was incubated with varying concentrations of placenta-derived human alkaline phosphatase. To accomplish this, placenta-derived human alkaline phosphatase (0.0002 U) in a 100-μL volume was added to each of thirteen 1.5-mL tubes. To each tube, CKLP1 was then added at a fixed concentration [10 mM (0.4%)]. Tubes were inverted twice and incubated in a water bath at 37° C. At each of 13 different time points (0, 1, 2.5, 5, 15, and 30 minutes and at 1, 2, 4, 8, 24, 48, and 72 hours), a single tube was removed, and the reaction was stopped by the addition of 2 volumes (200 μL) of acetonitrile. Samples were stored at −80° C. The experiment was repeated with 10 mM CKLP1 (0.4%) in the presence of placenta-derived human alkaline phosphatase at concentrations of 0.002 U, 0.02 U, and 0.2 U. All assays were performed at pH 10.
In a second experiment, a fixed concentration of placenta-derived human alkaline phosphatase was incubated with varying concentrations of CKLP1. To accomplish this, a fixed concentration of 0.02 U of placenta-derived human alkaline phosphatase in a 100-μL volume was added to each of thirteen 1.5-mL tubes. To each tube, CKLP1 was then added [0.01 mM (0.0004%)]. Tubes were inverted twice and incubated in a water bath at 37° C. At each of 13 different time points (0, 1, 2.5, 5, 15, and 30 minutes and at 1, 2, 4, 8, 24, 48, and 72 hours), a single tube was removed and the reaction was stopped by the addition of 2 volumes (200 μL) of acetonitrile. Samples were stored at −80° C. The experiment was repeated with the same concentration of placenta-derived human alkaline phosphatase (0.02 U) and various concentrations of CKLP1 [0.1 mM (0.004%), 1 mM (0.04%), 10 mM (0.4%), 20 mM (0.8%), and 40 mM (1.6%)]. All assays were performed at pH 10.

[2] = test system: normotensive hound dogs (IOP); experiment: Extended-dose (61 days) study of CKLP1 on IOP in hound dogs; assay type: in vivo, hound dog
Description: To evaluate the effect of IOP lowering long-term, hound dogs (n=5) were treated with 10 mM CKLP1 in one eye and vehicle (PBS) in the contralateral eye once daily for 61 consecutive days. […] On average, IOP was reduced by 18.9±1.3% (reduction of 3.0±0.5 mmHg; p<0.001) in all five hound dogs over the entire treatment period. Additionally, no significant change in systolic (baseline, 141.0±6.7; treatment, 138.9±9.5; p=0.56) or diastolic (baseline, 80.1±8.9; treatment, 78.1±5.9; p=0.76) blood pressure was observed during the treatment period (FIG. 7B). Hound dogs were also evaluated for eye redness, swelling of the eye or eyelids, unusual discharge from eye and overall food intake.
For the extended dose study, baseline IOPs were measured three times daily for 5 consecutive days. The average of the three measurements was recorded as the daily IOP and averaged over the 5 days for the final pre-treatment value. Following baseline IOP measurements, dogs (n=5) were treated with 10 mM CKLP1 in one eye, while the contralateral eye received vehicle (PBS). IOP was measured at least three times every week at times corresponding to 1, 4, and 23 hours post treatment. Blood pressure was measured three times each week at the 4 hour post treatment time point.

[3] = test system: African green monkeys (IOP); experiment: Effect of CKLP1 on IOP in African green monkeys; assay type: in vivo, African green monkey
Description: To further validate the IOP lowering effects of CKLP1 in large animal models, one eye of five African green monkeys was treated with topical ocular administration of 10 mM CKLP1, while the contralateral eye received vehicle (PBS). Baseline IOP in control and treated eyes were 20.1±1.8 mmHg and 21.9±2.5 mmHg, respectively.
For treatment days, 10 mM CKLP1 (dissolved in PBS) was added to one eye of each monkey in a 50 μl topical ocular administration, once daily, for 7 consecutive days, while the contralateral eye received a 50 μl ocular administration of vehicle (PBS).

beagle dogs = experiment: Safety findings, 28-day topical ophthalmic dosing in beagle dogs; assay type: in vivo, beagle dog
Description: In the study, dogs (3 males and 3 females) received bilateral daily topical administration of 40 μL/eye of 2.0%, 4.0%, or 8.0% as measured in mg/mL (equivalent to 0.8, 1.6, or 3.2 mg CKLP1 per eye) of CKLP1 in phosphate buffered saline. Based on an average male dog weight of 7.9 kg at the start of the study, these doses were equivalent to 0.20 mg/kg, 0.41 mg/kg, or 0.81 mg/kg and based on an average female dog weight of 6.0 kg at the start of the study, these doses were equivalent to 0.27 mg/kg, 0.53 mg/kg, or 1.07 mg/kg. Blood was collected for toxicokinetic analysis pre-dose and at 1, 2, 4, 8, 12, and 24 hours post dosing on days 1 and 28. In addition, 2 animals of each gender were allowed 336 hours (14 days) of recovery time following the final dose, at which point final blood samples were obtained.

[4] = test system: Dutch-belted pigmented rabbits (IOP); conditions: previously reported; cited from earlier work
hound dogs = experiment: Histology, blood chemistry and tolerability after bilateral topical CKLP1 in hound dogs
Description: To evaluate local and systemic side effects of bilateral topical administration of CKLP1 to the eyes, additional tissue samples were harvested for histological examination. Tissues collected and fixed during necropsy were processed into paraffin blocks, sectioned, and stained with hematoxylin and eosin.

[5] = 10 mM CKLP1 once daily, 61 days, vs vehicle eye
[6] = 10 mM CKLP1 topical once daily, 7 days

For `CC1(C)Oc2ccc(C#N)cc2[C@@H](N2CCCC2=O)[C@@H]1OP(=O)(O)O` [CKLP1], the “conversion of CKLP1 to levcromakalim” value (5′-nucleotidase) was “not”, the “conversion rate of CKLP1 to levcromakalim at 24 hours” value (from here on “conversion rate of CKLP1”) ([1]; ALP 0.02 U/100 μL, CKLP1 0.01 mM) was 26.9% and the “conversion rate of CKLP1” value ([1]; ALP 0.02 U/100 μL, CKLP1 0.1 mM) was 20.0%. The “conversion rate of CKLP1” value ([1]; ALP 0.02 U/100 μL, CKLP1 1 mM) was 5.2%, the “conversion rate of CKLP1” value ([1]; ALP 0.02 U/100 μL, CKLP1 10 mM) was 4.9% and the “conversion rate of CKLP1” value ([1]; ALP 0.02 U/100 μL, CKLP1 20 mM) was 3.2%. The “conversion rate of CKLP1” value ([1]; ALP 0.02 U/100 μL, CKLP1 40 mM) was 1.7%, the “conversion rate of CKLP1” value ([1]; CKLP1 10 mM, ALP 0.0002 U/100 μL) was 0.4% and the “conversion rate of CKLP1” value ([1]; CKLP1 10 mM, ALP 0.002 U/100 μL) was 1.3%. For the same compound, the “conversion rate of CKLP1” value ([1]; CKLP1 10 mM, ALP 0.02 U/100 μL) was 4.8%, the “conversion rate of CKLP1” value ([1]; CKLP1 10 mM, ALP 0.2 U/100 μL) was 13.7% and the “conversion of CKLP1 to levcromakalim, maximum” value ([1]; CKLP1 fixed 10 mM (0.4%), ALP 0.0002-0.2 U/100 μL, up to 72 hours, pH 10, 37° C.) was no more than 21%. For the same compound, the “average IOP in treated eye” value ([2]; 10 mM CKLP1 once daily, 61 consecutive days) was 12.9±2.0 mmHg, the “eye redness, swelling of the eye or eyelids, unusual discharge from eye, food intake” value ([2]; 10 mM CKLP1 once daily, 61 days) was “No notable findings” and the “IOP reduced by” value [2, 5] was 18.9±1.3%. For the same compound, the IOP reduction [2, 5] was 3.0±0.5 mmHg, the “return of IOP to baseline after CKLP1 administration” value ([2]; dogs (FIG. 7A), same effect in African green monkeys (FIG. 8A)) was “greater than 24 hours” and the “IOP lowered by (summary)” value ([2]; hound dogs) was “approximately 19%”. The “IOP reduction compared to baseline” value [3, 6] was 3.8±1.8 mmHg, the “change in IOP” value [3, 6] was 16.7±6.7% and the “IOP lowered by (summary)” value ([3]; African green monkeys) was “approximately 17%”. The non-adverse ocular effects (beagle dogs; 3.2 mg/eye/dose (8%)) was “slight to moderate redness (congestion)”, the “microscopic findings, lacrimal gland” value (beagle dogs; 2 females at 3.2 mg/eye/dose (8%)) was “mild lacrimal gland acinar atrophy” and the “reversibility of ocular findings” value (beagle dogs; 14-day recovery period) was “all ocular findings were fully recovered”. The “microscopic findings, corneal epithelium” value (beagle dogs; males at ≥1.6 mg/eye/dose (4%) and 1 female at 3.2 mg/eye/dose (8%)) was “mild increased mitoses in the corneal epithelium”, the “no-observed-adverse-effect level (NOAEL)” value (beagle dogs; topical, 28 days, % as measured in mg/mL) was 8.0% and the “IOP lowered by” value [4] was roughly 16%. For the same compound, the “overall tolerability, ocular or systemic toxicity” value (hound dogs; bilateral eye treatment with CKLP1) was “well tolerated and did not result in any observed ocular or systemic toxicity”, the “histology of 40 different tissues” value (hound dogs; bilateral topical 10 mM CKLP1, 12-13 days) was “none of the analyzed tissues showed any significant pathology” and the blood chemistry (hound dogs; bilateral topical 10 mM CKLP1, except albumin, slightly lower in treated and control) was “within normal range”.
